Measurements as given in US20160106814A1, “Novel Oral Pharmaceutical Composition for Treatment of Diabetes” (NOVO NORDISK A/S, priority 2013, published 2016).
*1 amine or outer side, *2 acyl side, *3 side chain or, on linkers, in order; H or OH if unused. Where a SMILES comes first, the peptide text is derived from it. Side-chain parts run from the residue outwards. [ ]: non-standard residue; d: D form. The star is where a group is joined. Decanoyl(10-(4-HOOC-PhO)) = O=C(O)c1ccc(OCCCCCCCCCC(=O)*)cc1; γGlu = O=C(O)[C@H](CCC(=O)[*:2])N[*:1]; C14 diacid = O=C(O)CCCCCCCCCCCCC(=O)*; AEEA = NCCOCCOCC(=O)O; Aib = CC(C)(N)C(=O)O

Test: Transport of GLP-1 peptide across mucus-producing E12 cell monolayers in the presence of sodium caprate and BBI
Assay type: in vitro ADME
Conditions: pH 7.4, apical to basolateral
Protocol: Buffer was then removed and the experiment initiated. […] Receiver samples (200 μl) were taken every 15 min.
In all samples with GLP-1 peptide and mannitol, the concentration of GLP-1 peptide was determined using a LOCI assay (or LC-MS assay) and scintillation counter, respectively.

[1] = 100 μM GLP-1 peptide + 13 mM sodium caprate + 0.2% BBI
[2] = 100 μM GLP-1 peptide + 13 mM sodium caprate, without BBI

SMILES	Papp A→B [1] [×10⁻⁶ cm/s]	Papp A→B [2] [×10⁻⁶ cm/s]
CC[C@H](C)[C@H](NC(=O)[C@H](Cc1ccccc1)NC(=O)[C@H](CCC(=O)O)NC(=O)[C@H](CCCCNC(=O)COCCOCCNC(=O)COCCOCCNC(=O)CC[C@H](NC(=O)CCCCCCCCCOc1ccc(C(=O)O)cc1)C(=O)O)NC(=O)[C@H](C)NC(=O)[C@H](C)NC(=O)[C@H](CCC(N)=O)NC(=O)CNC(=O)[C@H](CCC(=O)O)NC(=O)[C@H](CC(C)C)NC(=O)[C@H](Cc1ccc(O)cc1)NC(=O)[C@H](CCCCNC(=O)COCCOCCNC(=O)COCCOCCNC(=O)CC[C@H](NC(=O)CCCCCCCCCOc1ccc(C(=O)O)cc1)C(=O)O)NC(=O)[C@H](CO)NC(=O)[C@@H](NC(=O)[C@H](CC(=O)O)NC(=O)[C@H](CO)NC(=O)[C@@H](NC(=O)[C@H](Cc1ccccc1)NC(=O)[C@@H](NC(=O)CNC(=O)[C@H](CCC(=O)O)NC(=O)C(C)(C)NC(=O)[C@@H](N)Cc1c[nH]cn1)[C@@H](C)O)[C@@H](C)O)C(C)C)C(=O)N[C@@H](C)C(=O)N[C@@H](Cc1c[nH]c2ccccc12)C(=O)N[C@@H](CC(C)C)C(=O)N[C@H](C(=O)N[C@@H](CCC(N)=O)C(=O)NCC(=O)N[C@@H](CCCNC(=N)N)C(=O)NCC(=O)O)C(C)C [GLP-1 peptide 6, N{Epsilon-18}-[2-[2-[2-[[2-[2-[2-[[(4S)-4-carboxy-4-[10-(4-carboxyphenoxy)-decanoylamino]butanoyl]amino]ethoxy]ethoxy]acetyl]amino]ethoxy]ethoxy]acetyl], N{Epsilon-26}-[2-[2-[2-[[2-[2-[2-[[(4S)-4-carboxy-4-[10-(4-carboxyphenoxy)decanoylamino]butanoyl]-amino]ethoxy]ethoxy]acetyl]amino]ethoxy]ethoxy]acetyl]-[Aib8,Lys18,Gln34]-GLP-1-(7-37)-peptide]	0.296	0.159
CC[C@H](C)[C@H](NC(=O)[C@H](Cc1ccccc1)NC(=O)[C@H](CCC(=O)O)NC(=O)[C@H](CCCCNC(=O)COCCOCCNC(=O)COCCOCCNC(=O)CC[C@H](NC(=O)CCCCCCCCCOc1ccc(C(=O)O)cc1)C(=O)O)NC(=O)[C@H](C)NC(=O)[C@H](C)NC(=O)[C@H](CCC(N)=O)NC(=O)[C@H](CCC(=O)O)NC(=O)[C@H](CCC(=O)O)NC(=O)[C@H](CC(C)C)NC(=O)[C@H](Cc1ccc(O)cc1)NC(=O)[C@H](CCCCNC(=O)COCCOCCNC(=O)COCCOCCNC(=O)CC[C@H](NC(=O)CCCCCCCCCOc1ccc(C(=O)O)cc1)C(=O)O)NC(=O)[C@H](CO)NC(=O)[C@@H](NC(=O)[C@H](CC(=O)O)NC(=O)[C@H](CO)NC(=O)[C@@H](NC(=O)[C@H](Cc1ccccc1)NC(=O)[C@@H](NC(=O)CNC(=O)[C@H](CCC(=O)O)NC(=O)C(C)(C)NC(=O)[C@@H](N)Cc1c[nH]cn1)[C@@H](C)O)[C@@H](C)O)C(C)C)C(=O)N[C@@H](C)C(=O)N[C@@H](Cc1c[nH]c2ccccc12)C(=O)N[C@@H](CC(C)C)C(=O)N[C@H](C(=O)N[C@@H](CCCNC(=N)N)C(=O)NCC(=O)N[C@@H](CCCNC(=N)N)C(=O)NCC(=O)O)C(C)C [GLP-1 peptide 4, N{Epsilon-18}-[2-[2-[2-[[2-[2-[2-[[(4S)-4-carboxy-4-[10-(4-carboxyphenoxy)-decanoylamino]butanoyl]amino]ethoxy]ethoxy]acetyl]amino]ethoxy]ethoxy]acetyl], N{Epsilon-26}-[2-[2-[2-[[2-[2-[2-[[(4S)-4-carboxy-4-[10-(4-carboxyphenoxy)decanoylamino]butanoyl]-amino]ethoxy]ethoxy]acetyl]amino]ethoxy]ethoxy]acetyl]-[Aib8,Lys18,Glu22,Arg34]-GLP-1-(7-37)-peptide] (H-H[Aib]EGTFTSDVSK([AEEA-AEEA-γGlu-Decanoyl(10-(4-HOOC-PhO))])YLEEQAAK([AEEA-AEEA-γGlu-Decanoyl(10-(4-HOOC-PhO))])EFIAWLVRGRG-OH)	0.529	0.204
CC[C@H](C)[C@H](NC(=O)[C@H](Cc1ccccc1)NC(=O)[C@H](CCC(=O)O)NC(=O)[C@H](CCCCNC(=O)COCCOCCNC(=O)COCCOCCNC(=O)CC[C@H](NC(=O)CCCCCCCCCCCCCCCCC(=O)O)C(=O)O)NC(=O)[C@H](C)NC(=O)[C@H](C)NC(=O)[C@H](CCC(N)=O)NC(=O)CNC(=O)[C@H](CCC(=O)O)NC(=O)[C@H](CC(C)C)NC(=O)[C@H](Cc1ccc(O)cc1)NC(=O)[C@H](CO)NC(=O)[C@H](CO)NC(=O)[C@@H](NC(=O)[C@H](CC(=O)O)NC(=O)[C@H](CO)NC(=O)[C@@H](NC(=O)[C@H](Cc1ccccc1)NC(=O)[C@@H](NC(=O)CNC(=O)[C@H](CCC(=O)O)NC(=O)C(C)(C)NC(=O)[C@@H](N)Cc1c[nH]cn1)[C@@H](C)O)[C@@H](C)O)C(C)C)C(=O)N[C@@H](C)C(=O)N[C@@H](Cc1c[nH]cn1)C(=O)N[C@@H](CC(C)C)C(=O)N[C@H](C(=O)N[C@@H](CCC(N)=O)C(=O)NCC(=O)N[C@@H](CCCNC(=N)N)C(=O)NCC(=O)O)C(C)C [GLP-1 peptide 8, N{Epsilon-26}-[2-[2-[2-[[2-[2-[2-[[(4S)-4-carboxy-4-(17-carboxy-heptadecanoylamino)butanoyl]amino]ethoxy]ethoxy]acetyl]amino]ethoxy]ethoxy]acetyl]-[Aib8,His31,Gln34]-GLP-1-(7-37)-peptide]	0.363	0.184
CC[C@H](C)[C@H](NC(=O)[C@H](Cc1ccccc1)NC(=O)[C@H](CCC(=O)O)NC(=O)[C@H](CCCCNC(=O)COCCOCCNC(=O)COCCOCCNC(=O)CC[C@H](NC(=O)CCCCCCCCCCCCC(=O)O)C(=O)O)NC(=O)[C@H](C)NC(=O)[C@H](C)NC(=O)[C@H](CCC(N)=O)NC(=O)[C@H](CCC(=O)O)NC(=O)[C@H](CCC(=O)O)NC(=O)[C@H](CC(C)C)NC(=O)[C@H](Cc1ccc(O)cc1)NC(=O)[C@H](CCCCNC(=O)COCCOCCNC(=O)COCCOCCNC(=O)CC[C@H](NC(=O)CCCCCCCCCCCCC(=O)O)C(=O)O)NC(=O)[C@H](CO)NC(=O)[C@@H](NC(=O)[C@H](CC(=O)O)NC(=O)[C@H](CO)NC(=O)[C@@H](NC(=O)[C@H](Cc1ccccc1)NC(=O)[C@@H](NC(=O)CNC(=O)[C@H](CCC(=O)O)NC(=O)C(C)(C)NC(=O)[C@@H](N)Cc1c[nH]cn1)[C@@H](C)O)[C@@H](C)O)C(C)C)C(=O)N[C@@H](C)C(=O)N[C@@H](Cc1c[nH]c2ccccc12)C(=O)N[C@@H](CC(C)C)C(=O)N[C@H](C(=O)N[C@@H](CCCNC(=N)N)C(=O)NCC(=O)N[C@@H](CCCNC(=N)N)C(=O)NCC(=O)O)C(C)C [GLP-1 peptide 5, N{Epsilon-18}-[2-[2-[2-[[2-[2-[2-[[(4S)-4-carboxy-4-(13-carboxytridecanoylamino)butanoyl]amino]ethoxy]ethoxy]acetyl]amino]ethoxy]ethoxy]acetyl], —N{Epsilon-26}-[2-[2-[2-[[2-[2-[2-[[(4S)-4-carboxy-4-(13-carboxytridecanoylamino)butanoyl]-amino]ethoxy]ethoxy]acetyl]amino]ethoxy]ethoxy]acetyl]-[Aib8,Lys18,Glu22,Arg34]-GLP-1-(7-37)-peptide] (H-H[Aib]EGTFTSDVSK([AEEA-AEEA-γGlu-C14 diacid])YLEEQAAK([AEEA-AEEA-γGlu-C14 diacid])EFIAWLVRGRG-OH)	0.592	0.314
CC[C@H](C)[C@H](NC(=O)[C@H](Cc1ccccc1)NC(=O)[C@H](CCC(=O)O)NC(=O)[C@H](CCCCNC(=O)COCCOCCNC(=O)COCCOCCNC(=O)CC[C@H](NC(=O)CCCCCCCCCOc1ccc(C(=O)O)cc1)C(=O)O)NC(=O)[C@H](C)NC(=O)[C@H](C)NC(=O)[C@H](CCC(N)=O)NC(=O)[C@H](CCC(=O)O)NC(=O)[C@H](CCC(=O)O)NC(=O)[C@H](CC(C)C)NC(=O)[C@H](Cc1ccc(O)cc1)NC(=O)[C@H](CCCCNC(=O)COCCOCCNC(=O)COCCOCCNC(=O)CC[C@H](NC(=O)CCCCCCCCCOc1ccc(C(=O)O)cc1)C(=O)O)NC(=O)[C@H](CO)NC(=O)[C@@H](NC(=O)[C@H](CC(=O)O)NC(=O)[C@H](CO)NC(=O)[C@@H](NC(=O)[C@H](Cc1ccccc1)NC(=O)[C@@H](NC(=O)CNC(=O)[C@H](CCC(=O)O)NC(=O)C(C)(C)NC(=O)[C@@H](N)Cc1c[nH]cn1)[C@@H](C)O)[C@@H](C)O)C(C)C)C(=O)N[C@@H](C)C(=O)N[C@@H](Cc1c[nH]c2ccccc12)C(=O)N[C@@H](CC(C)C)C(=O)N[C@H](C(=O)N[C@@H](CCC(N)=O)C(=O)NCC(=O)N[C@@H](CCCNC(=N)N)C(=O)NCC(=O)O)C(C)C [GLP-1 peptide 2, N{Epsilon-18}-[2-[2-[2-[[2-[2-[2-[[(4S)-4-carboxy-4-[10-(4-carboxyphenoxy)-decanoylamino]butanoyl]amino]ethoxy]ethoxy]acetyl]amino]ethoxy]ethoxy]acetyl], N{Epsilon-26}-[2-[2-[2-[[2-[2-[2-[[(4S)-4-carboxy-4-[10-(4-carboxyphenoxy)decanoylamino]butanoyl]-amino]ethoxy]ethoxy]acetyl]amino]ethoxy]ethoxy]acetyl]-[Aib8,Lys18,Glu22,Gln34]-GLP-1-(7-37)-peptide]	0.438	0.389
